Molecules are shown by their SMILES. Where “and” joins values, the source holds several entries; their conditions need not be identical. Equal values may be shown once. Where a name gives a salt, the structure may show the parent alone. Read-outs that look alike come from different tables or passages of the source.

The values that follow come from patent publication US9163013B2, “Use of 1H-indazole-3-carboxamide compounds as glycogen synthase kinase 3 beta inhibitors” (AZIENDE CHIMICHE RIUNITE ANGELINI FRANCESCO A.C.R.A.F. …, priority 2012, dated 2015).

The target of one assay is PAK1 (h) (Homo sapiens (Human), UniProt Q13153). Nature of the assay: Kinase selectivity panel. Format: biochemical. As to conditions: duplicate, read-out: % inhibition of control values, PAK1 (h). The method, then: (§1) (a) Compound 1 was tested against a panel of 60 kinases in order to assess its selectivity. The assays were chosen taking into consideration the diversity of assay families.
(§2) Human recombinant kinases were incubated in the presence of specific peptide substrates plus ATP for different times (10, 15, 30, 60 or 90 minutes) at 22° C. Phosphorylated substrate was detected by LANCE or HTRF technology (CISBIO, MA, USA).
(§3) Compound 1 was tested at 10 μM in duplicate.
(§4) The results are expressed as a percent of inhibition of control specific activity obtained in the presence of the test compound 1 and are reported in the following Table 5.
(§5) (b) Compounds 7, 12, 21 and 24 were tested against the same panel of 60 kinases under the same conditions described above for compound 1.
(§6) The results are expressed as a percent of inhibition of control specific activity obtained in the presence of the test compounds and are reported in the following Table 6.

Another assay has as its target CHK1 (h) (Homo sapiens (Human), UniProt O14757). Nature of the assay: Kinase selectivity panel. Format: biochemical. Particulars: duplicate, read-out: % inhibition of control values, CHK1 (h). The method, then:
as §1, §2, §3, §4, §5, §6

The next assay has as its target CDC2/CDK1 (h) (cycB) (Homo sapiens (Human), UniProt P06493). Kind of assay: Kinase selectivity panel. Format: biochemical. Particulars: duplicate, read-out: % inhibition of control values, CDC2/CDK1 (h) (cycB). The method, then: as §1, §2, §3, §4, §5, §6
In another assay the target is EphA4 kinase (h) (Homo sapiens (Human), UniProt P54764). Kind of assay: Kinase selectivity panel. Format: biochemical. As to conditions: duplicate, read-out: % inhibition of control values, EphA4 kinase (h). How it is done: as §1, §2, §3, §4, §5, §6
In a further assay the target is DAPK1 (h) (Homo sapiens (Human), UniProt P53355). Kind of assay: Kinase selectivity panel. As to conditions: duplicate, read-out: % inhibition of control values, DAPK1 (h). Format: biochemical. The method, then:
as §1, §2, §3, §4, §5, §6

Another assay concerns the target TRKA (h) (Homo sapiens (Human), UniProt P04629). Kind of assay: Kinase selectivity panel. Format: biochemical. As to conditions: duplicate, read-out: % inhibition of control values, TRKA (h). How it is done:
as §1, §2, §3, §4, §5, §6

The target of another assay is CDK5/p35 (h) (Homo sapiens (Human), UniProt Q00535). Nature of the assay: Kinase selectivity panel. Format: biochemical. Particulars: duplicate, read-out: % inhibition of control values, CDK5/p35 (h). The method, then:
as §1, §2, §3, §4, §5, §6

The target of another assay is ERK2 (h) (P42mapk) (Homo sapiens (Human), UniProt P28482). Nature of the assay: Kinase selectivity panel. Format: biochemical. Particulars: duplicate, read-out: % inhibition of control values, ERK2 (h) (P42mapk). How it is done:
as §1, §2, §3, §4, §5, §6

A further assay deals with IGF1R kinase (h) (Homo sapiens (Human), UniProt P08069). Kind of assay: Kinase selectivity panel. Particulars: duplicate, read-out: % inhibition of control values, IGF1R kinase (h). Format: biochemical. The method, then:
as §1, §2, §3, §4, §5, §6

Another assay concerns the target IRK (h) (InsR) (Homo sapiens (Human), UniProt P06213). Nature of the assay: Kinase selectivity panel. Format: biochemical. As to conditions: duplicate, read-out: % inhibition of control values, IRK (h) (InsR). The method, then: as §1, §2, §3, §4, §5, §6
A further assay has as its target PhKgamma 2 (h) (Homo sapiens (Human), UniProt P15735). Kind of assay: Kinase selectivity panel. Format: biochemical. Particulars: duplicate, read-out: % inhibition of control values, PhKgamma 2 (h). How it is done:
as §1, §2, §3, §4, §5, §6

In another assay the target is p38delta kinase (h) (Homo sapiens (Human), UniProt O15264). Kind of assay: Kinase selectivity panel. Format: biochemical. As to conditions: duplicate, read-out: % inhibition of control values, p38delta kinase (h). How it is done:
as §1, §2, §3, §4, §5, §6

The next assay addresses RSK2 (h) (Homo sapiens (Human), UniProt P51812). Nature of the assay: Kinase selectivity panel. Format: biochemical. As to conditions: duplicate, read-out: % inhibition of control values, RSK2 (h). The method, then:
as §1, §2, §3, §4, §5, §6

A further assay has as its target Akt1/PKBalpha (h) (Homo sapiens (Human), UniProt P31749). Nature of the assay: Kinase selectivity panel. Format: biochemical. As to conditions: duplicate, read-out: % inhibition of control values, Akt1/PKBalpha (h). The method, then: as §1, §2, §3, §4, §5, §6
The next assay deals with human GSK-3β (Homo sapiens (Human), UniProt P49841). Nature of the assay: Activity on human GSK-3β, substrate phosphorylation measured by LANCE technology. Format: biochemical. The method, then: Activity on human GSK-3β was assessed using the following methods (according to Meijer et al., Chem. Biol., 2003-10:1255-1266).
In a first screening assay, compounds were tested in duplicate at a concentration of 10 μM.
Human recombinant enzyme GSK-3β was incubated for 90 minutes at 22° C. in the presence of compounds or vehicle in a reaction buffer containing ATP plus 100 nM unphosphorylated specific substrate peptide (Ulight-[…]-amide). Substrate phosphorylation was measured by LANCE technology (PerkinElmer, Conn., USA).
The results, reported in the following Table 4, are expressed as a percent of inhibition of control specific activity obtained in the presence of the test compounds (as % inhibition at 10 μm).
In a second assay, the same compounds were assayed at five concentrations ranging from 100 μM to 10 nM with ten-fold dilutions in duplicate. Compounds 1 to 7, 9, 11 and 13 to 26 were tested using the same first assay, compounds 8, 10, 12, and 27 to 31 were tested in another assay based on the binding and displacement of AlexaFluor® 647 labeled, ATP-competitive Kinase inhibitor scaffold using LanthaScreen™ TR-FRET technology Eu Kinase assay packet according to manufacturer's instruction (Life Technologies, Italy).
The IC50 values (concentration causing a half maximal inhibition of control specific activity), reported in table 4, were determined by non-linear regression analysis of the inhibition curves generated with mean replicate values using Hill equation curve fitting.

A further assay concerns AMPKalpha. Kind of assay: Kinase selectivity panel. As to conditions: 10 μM, duplicate. Format: biochemical, human. The method, then:
as §1, §2, §3, §4, §5, §6

For a further assay, the target named is DYRK1a (h) (Homo sapiens (Human), UniProt Q13627). Nature of the assay: Kinase selectivity panel and IC50 determination. Format: biochemical. As to conditions: for inhibition at 10 µM: duplicate, read-out: % inhibition of control values, DYRK1a (h). The method, then:
as §1, §2, §3, §4
(§7) Compound 1 was also assayed to determine the IC50 values for three different kinases (PCTAIRE1, DYRK1a, and CDK2) in comparison to Gsk3β. The assay was conducted with the same method described above in test I, second assay.
as §5, §6

For a further assay, the target named is CDK2 (h) (cycA) (Homo sapiens (Human), UniProt P24941). Nature of the assay: Kinase selectivity panel and IC50 determination. Particulars: for inhibition at 10 µM: duplicate, read-out: % inhibition of control values, CDK2 (h) (cycA). Format: biochemical. How it is done:
as §1, §2, §3, §4, §7, §5, §6

The target in the next assay is PCTAIRE1 kinase (h) (Homo sapiens (Human), UniProt Q00536). Nature of the assay: Kinase selectivity panel and IC50 determination. Particulars: for inhibition at 10 µM: duplicate, read-out: % inhibition of control values, PCTAIRE1 kinase (h). Format: biochemical. How it is done: as §1, §2, §3, §4, §7, §5, §6
The mark [1] stands for this setting: 10 μM, duplicate, human recombinant GSK-3β, 90 minutes at 22° C.
The mark [2] stands for this setting: LANCE phosphorylation assay, five concentrations 100 μM to 10 nM, duplicate, read-out: IC50.
[3] abbreviates: Table 5A, method of test I, second assay.

Sequence of ERK2 (h) (P42mapk) (P28482 whole entry): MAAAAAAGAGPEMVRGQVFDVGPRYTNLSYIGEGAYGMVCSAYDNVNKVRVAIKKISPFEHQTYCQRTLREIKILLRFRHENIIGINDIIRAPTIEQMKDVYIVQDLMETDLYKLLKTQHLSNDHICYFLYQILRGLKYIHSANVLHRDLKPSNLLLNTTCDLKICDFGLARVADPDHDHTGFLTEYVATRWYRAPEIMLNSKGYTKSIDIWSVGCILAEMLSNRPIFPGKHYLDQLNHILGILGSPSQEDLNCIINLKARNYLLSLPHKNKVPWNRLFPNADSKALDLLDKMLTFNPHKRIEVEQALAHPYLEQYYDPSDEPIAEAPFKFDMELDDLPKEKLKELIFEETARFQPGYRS
Sequence of EphA4 kinase (h) (P54764 20-986): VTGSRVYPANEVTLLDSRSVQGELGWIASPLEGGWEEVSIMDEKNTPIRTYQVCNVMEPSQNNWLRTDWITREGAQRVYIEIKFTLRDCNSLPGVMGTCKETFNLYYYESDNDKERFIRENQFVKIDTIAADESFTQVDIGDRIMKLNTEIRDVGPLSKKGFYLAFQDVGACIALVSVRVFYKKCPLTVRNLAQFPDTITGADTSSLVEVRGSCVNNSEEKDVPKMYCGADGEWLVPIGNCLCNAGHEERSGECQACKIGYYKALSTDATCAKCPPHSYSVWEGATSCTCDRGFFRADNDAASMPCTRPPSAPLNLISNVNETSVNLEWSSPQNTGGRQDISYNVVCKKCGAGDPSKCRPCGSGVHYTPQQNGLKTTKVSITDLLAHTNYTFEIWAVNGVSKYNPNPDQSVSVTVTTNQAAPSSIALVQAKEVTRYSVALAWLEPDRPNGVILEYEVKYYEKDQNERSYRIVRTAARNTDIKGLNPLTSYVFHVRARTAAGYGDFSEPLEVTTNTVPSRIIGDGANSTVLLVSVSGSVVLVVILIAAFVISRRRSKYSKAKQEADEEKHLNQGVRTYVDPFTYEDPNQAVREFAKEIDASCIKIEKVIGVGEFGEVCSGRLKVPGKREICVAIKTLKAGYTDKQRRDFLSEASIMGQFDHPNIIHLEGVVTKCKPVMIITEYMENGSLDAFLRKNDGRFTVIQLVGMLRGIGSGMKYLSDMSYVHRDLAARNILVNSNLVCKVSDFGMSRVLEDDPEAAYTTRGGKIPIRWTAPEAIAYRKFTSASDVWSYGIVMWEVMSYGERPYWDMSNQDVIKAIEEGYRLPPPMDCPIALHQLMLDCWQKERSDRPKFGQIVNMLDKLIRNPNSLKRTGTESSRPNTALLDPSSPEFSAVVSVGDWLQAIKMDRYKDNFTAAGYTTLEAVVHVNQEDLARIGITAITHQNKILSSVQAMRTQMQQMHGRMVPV
Sequence of PhKgamma 2 (h) (P15735 whole entry): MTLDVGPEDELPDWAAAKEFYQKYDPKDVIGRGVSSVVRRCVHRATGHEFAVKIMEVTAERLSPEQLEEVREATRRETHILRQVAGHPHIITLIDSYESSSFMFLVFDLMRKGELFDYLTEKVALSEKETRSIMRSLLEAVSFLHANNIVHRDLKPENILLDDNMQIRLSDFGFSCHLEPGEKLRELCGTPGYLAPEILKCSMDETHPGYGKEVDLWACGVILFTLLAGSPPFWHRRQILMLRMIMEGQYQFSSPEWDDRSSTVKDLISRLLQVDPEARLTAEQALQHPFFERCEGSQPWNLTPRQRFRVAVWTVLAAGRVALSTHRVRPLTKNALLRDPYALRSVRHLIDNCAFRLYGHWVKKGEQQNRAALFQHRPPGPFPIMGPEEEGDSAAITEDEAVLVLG
Sequence of PCTAIRE1 kinase (h) (Q00536 whole entry): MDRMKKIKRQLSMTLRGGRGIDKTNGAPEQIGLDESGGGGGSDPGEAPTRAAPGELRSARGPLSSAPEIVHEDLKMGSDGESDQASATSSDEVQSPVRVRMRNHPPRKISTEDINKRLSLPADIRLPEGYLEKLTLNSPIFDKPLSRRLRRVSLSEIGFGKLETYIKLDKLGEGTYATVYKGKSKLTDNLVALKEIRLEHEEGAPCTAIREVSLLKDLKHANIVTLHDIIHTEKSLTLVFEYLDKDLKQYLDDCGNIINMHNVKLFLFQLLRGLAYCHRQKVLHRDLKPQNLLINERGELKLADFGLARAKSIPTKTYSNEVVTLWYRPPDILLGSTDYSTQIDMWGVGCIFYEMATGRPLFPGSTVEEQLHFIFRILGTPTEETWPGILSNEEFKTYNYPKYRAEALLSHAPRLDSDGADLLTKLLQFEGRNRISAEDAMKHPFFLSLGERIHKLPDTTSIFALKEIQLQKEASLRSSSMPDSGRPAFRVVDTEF
Sequence of Akt1/PKBalpha (h) (P31749 whole entry): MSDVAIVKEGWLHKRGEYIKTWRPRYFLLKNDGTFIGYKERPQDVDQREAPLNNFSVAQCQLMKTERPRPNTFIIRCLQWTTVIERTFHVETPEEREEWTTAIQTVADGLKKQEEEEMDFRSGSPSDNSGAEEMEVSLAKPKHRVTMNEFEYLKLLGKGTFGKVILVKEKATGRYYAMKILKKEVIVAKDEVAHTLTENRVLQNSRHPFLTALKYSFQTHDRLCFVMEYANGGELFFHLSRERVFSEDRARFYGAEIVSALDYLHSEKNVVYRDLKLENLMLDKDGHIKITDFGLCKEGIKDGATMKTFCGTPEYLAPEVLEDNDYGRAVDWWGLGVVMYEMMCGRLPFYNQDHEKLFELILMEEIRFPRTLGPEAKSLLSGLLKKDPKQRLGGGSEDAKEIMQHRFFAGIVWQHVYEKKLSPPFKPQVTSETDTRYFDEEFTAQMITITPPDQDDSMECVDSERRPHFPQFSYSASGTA
Sequence of human GSK-3β (P49841 whole entry): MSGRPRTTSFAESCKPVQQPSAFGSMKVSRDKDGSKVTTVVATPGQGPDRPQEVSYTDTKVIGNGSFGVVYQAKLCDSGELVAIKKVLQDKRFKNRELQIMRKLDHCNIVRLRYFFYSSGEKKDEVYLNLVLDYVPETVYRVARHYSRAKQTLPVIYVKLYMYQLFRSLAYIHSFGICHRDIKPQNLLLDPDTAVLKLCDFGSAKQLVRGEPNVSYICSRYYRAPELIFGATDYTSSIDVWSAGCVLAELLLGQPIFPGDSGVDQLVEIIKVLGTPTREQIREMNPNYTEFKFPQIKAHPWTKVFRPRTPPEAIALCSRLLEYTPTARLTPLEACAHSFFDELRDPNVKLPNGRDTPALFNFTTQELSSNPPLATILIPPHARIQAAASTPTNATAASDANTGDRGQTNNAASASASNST
Sequence of PAK1 (h) (Q13153 whole entry): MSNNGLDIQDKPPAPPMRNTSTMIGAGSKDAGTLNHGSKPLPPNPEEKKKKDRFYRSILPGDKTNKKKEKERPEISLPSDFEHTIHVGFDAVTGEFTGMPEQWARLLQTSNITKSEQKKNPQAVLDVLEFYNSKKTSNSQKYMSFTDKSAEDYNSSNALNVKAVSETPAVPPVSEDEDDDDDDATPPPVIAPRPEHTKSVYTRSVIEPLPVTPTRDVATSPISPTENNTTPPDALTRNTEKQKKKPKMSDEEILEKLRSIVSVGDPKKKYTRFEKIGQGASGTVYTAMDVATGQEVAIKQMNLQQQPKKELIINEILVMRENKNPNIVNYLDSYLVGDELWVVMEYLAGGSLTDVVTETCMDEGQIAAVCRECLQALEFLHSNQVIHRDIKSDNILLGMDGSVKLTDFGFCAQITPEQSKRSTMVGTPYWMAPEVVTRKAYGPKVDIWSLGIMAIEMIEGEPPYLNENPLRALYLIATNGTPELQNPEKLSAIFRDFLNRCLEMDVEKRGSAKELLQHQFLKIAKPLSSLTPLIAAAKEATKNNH
Sequence of IGF1R kinase (h) (P08069 31-1367): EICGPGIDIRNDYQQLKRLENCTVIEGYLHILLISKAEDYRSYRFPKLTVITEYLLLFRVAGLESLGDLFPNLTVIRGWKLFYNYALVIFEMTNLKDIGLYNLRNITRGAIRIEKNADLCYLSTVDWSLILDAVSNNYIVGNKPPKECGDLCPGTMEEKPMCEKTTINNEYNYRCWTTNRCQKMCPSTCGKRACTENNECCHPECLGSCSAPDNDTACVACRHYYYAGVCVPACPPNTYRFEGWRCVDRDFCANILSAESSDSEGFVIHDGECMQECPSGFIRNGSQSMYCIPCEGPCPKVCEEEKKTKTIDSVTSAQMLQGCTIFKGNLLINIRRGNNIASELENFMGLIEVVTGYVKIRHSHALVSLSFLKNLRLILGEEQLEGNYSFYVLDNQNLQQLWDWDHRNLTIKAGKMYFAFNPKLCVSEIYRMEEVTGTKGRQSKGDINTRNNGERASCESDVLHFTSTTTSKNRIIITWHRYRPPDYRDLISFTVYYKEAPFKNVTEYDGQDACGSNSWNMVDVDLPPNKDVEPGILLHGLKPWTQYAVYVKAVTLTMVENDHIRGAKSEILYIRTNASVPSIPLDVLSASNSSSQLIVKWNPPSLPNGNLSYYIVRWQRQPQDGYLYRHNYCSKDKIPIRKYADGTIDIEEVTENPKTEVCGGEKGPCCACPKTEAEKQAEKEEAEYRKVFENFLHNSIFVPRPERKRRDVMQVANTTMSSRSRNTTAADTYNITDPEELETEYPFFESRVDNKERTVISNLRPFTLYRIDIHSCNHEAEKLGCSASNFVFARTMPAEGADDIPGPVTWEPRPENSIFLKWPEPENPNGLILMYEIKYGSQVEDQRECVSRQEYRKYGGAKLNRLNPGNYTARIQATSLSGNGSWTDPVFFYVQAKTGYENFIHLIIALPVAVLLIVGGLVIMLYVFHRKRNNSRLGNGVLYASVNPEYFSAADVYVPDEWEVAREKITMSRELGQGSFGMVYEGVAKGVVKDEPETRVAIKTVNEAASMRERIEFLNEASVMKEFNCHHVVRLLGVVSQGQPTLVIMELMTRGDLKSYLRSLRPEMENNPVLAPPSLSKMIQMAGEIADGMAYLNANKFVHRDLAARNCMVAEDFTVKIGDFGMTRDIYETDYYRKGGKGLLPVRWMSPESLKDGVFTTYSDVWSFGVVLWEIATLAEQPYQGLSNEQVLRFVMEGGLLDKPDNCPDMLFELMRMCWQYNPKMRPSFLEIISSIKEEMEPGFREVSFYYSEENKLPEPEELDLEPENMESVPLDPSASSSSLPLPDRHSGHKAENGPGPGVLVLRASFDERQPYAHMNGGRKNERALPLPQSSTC

Consider `COc1ccc2[nH]nc(C(=O)NCC3CCN(CCc4ccc(O)cc4)CC3)c2c1` [Compound 1, N-({1-[2-(4-hydroxyphenyl)ethyl]-piperidin-4-yl}methyl)-5-methoxy-1H-indazole-3-carboxamide], for which the inhibition at 10 µM worked out at 4% at PAK1 (h); 12% on CHK1 (h); 31% on CDC2/CDK1 (h) (cycB); 0% on EphA4 kinase (h); 10% on DAPK1 (h); 10% at TRKA (h). Also, the inhibition at 10 µM on CDK5/p35 (h) is 30%; at ERK2 (h) (P42mapk), 33%; on IGF1R kinase (h), 5%; on IRK (h) (InsR) it was 18%; at PhKgamma 2 (h) it was 6%; at p38delta kinase (h) it was 12%. The inhibition at 10 µM was 3% at RSK2 (h); 7% at Akt1/PKBalpha (h); > 90% on human GSK-3β (setting [1]); 63% on DYRK1a (h); 27% on CDK2 (h) (cycA); 87% on PCTAIRE1 kinase (h). The “% Inhibition [10 μM]” value on human GSK-3β (setting [1]) amounted to 94%. Moreover, the IC50 – broadly, the concentration at which inhibition is half-maximal – is < 0.6 µM and 0.35 µM on human GSK-3β (setting [2]); 0.35 µM at human GSK-3β (Table 5A, method of test I, second assay, read-out: IC50 [μM] Gsk3β); 2.9 µM at DYRK1a (h) (setting [3]); 36 µM against CDK2 (h) (cycA) (setting [3]); 1.5 µM at PCTAIRE1 kinase (h) (setting [3]). Besides, in the assay with AMPKalpha, the “% inhibition of control values, AMPKalpha” value (“% inhibition … AMPKalpha” for short) came to 13%.
For the compound `COc1ccncc1-c1ccc2[nH]nc(C(=O)NCC3CCN(Cc4ccc(C(=O)O)o4)CC3)c2c1` [Compound 21, 5-({4-[({[5-(4-Methoxypyridin-3-yl)-1H-indazol-3-yl]carbonyl}amino)methyl]piperidin-1-yl}methyl)furan-2-carboxylic acid formate], the inhibition at 10 µM at PAK1 (h) is 4%; at CHK1 (h), 1%; on CDC2/CDK1 (h) (cycB) it was 99%; on EphA4 kinase (h), 2%; on DAPK1 (h), 5%; on TRKA (h), 4%. The inhibition at 10 µM at CDK5/p35 (h) was 98%; at ERK2 (h) (P42mapk), 89%; at IGF1R kinase (h), 0%; on IRK (h) (InsR) it was 0%; at PhKgamma 2 (h), 0%; on p38delta kinase (h), 35%. For the same compound, the inhibition at 10 µM on RSK2 (h) is 20%; on Akt1/PKBalpha (h), 0%; on DYRK1a (h) it was 99%; on CDK2 (h) (cycA) it was 100%; at PCTAIRE1 kinase (h), 94%. The IC50 at human GSK-3β (setting [2]) was found to be 0.01 µM. In the assay on AMPKalpha, the “% inhibition … AMPKalpha” value came out at 70%.
As to `COc1ccc2[nH]nc(C(=O)NCC3CCN(Cc4ccc(C(=O)O)o4)CC3)c2c1` [Compound 24, 5-{[4-({[(5-Methoxy-1H-indazol-3-yl)carbonyl]amino}methyl)piperidin-1-yl]methyl}furan-2-carboxylic acid], the inhibition at 10 µM worked out at 1% at PAK1 (h); 0% at CHK1 (h); 10% on CDC2/CDK1 (h) (cycB); 0% at EphA4 kinase (h); 15% on DAPK1 (h); 1% on TRKA (h). For the same compound, the inhibition at 10 µM at CDK5/p35 (h) came out at 16%; at ERK2 (h) (P42mapk), 35%; at IGF1R kinase (h) it was 0%; on IRK (h) (InsR), 3%; on PhKgamma 2 (h), 0%; at p38delta kinase (h), 4%. In addition, the inhibition at 10 µM at RSK2 (h) came out at 1%; on Akt1/PKBalpha (h) it was 0%; at DYRK1a (h), 59%; at CDK2 (h) (cycA) it was 36%; on PCTAIRE1 kinase (h) it was 1%. Besides, the IC50 on human GSK-3β (setting [2]) worked out at 0.4 µM. For the same compound, the “% inhibition … AMPKalpha” value in the assay on AMPKalpha is 21%.
